# Data from patent US8110365B2, “Compositions and methods for detecting and treating renal injury and inflammation” (Rhode Island Hospital, priority 2006, dated 2012).
# “Also recorded” adds a separate entry of the source. Where two headings read alike, the source gives them in different places.
# Legend:
# HKC cells = assay: Cell viability of HKC cells (Trypan blue exclusion); format: cell-based, human; details: TNF-a (2 ng/ml) treated HKC cells at 24 h
# Description: (§1) Human proximal TEC (HKC-8) (courtesy of Dr. L. Racusen of John Hopkins University, Baltimore, Md.) were maintained in Dulbecco's modified Eagle's medium (DMEM)/F12 supplemented with 5% fetal bovine serum (FBS). Cells were plated at approximately 70% confluence in the media containing 5% FBS for 24 h and then underwent serum starvation for another 24 h. Human recombinant HGF and human recombinant TNF-α (R&D systems, Minneapolis, Minn.) were added to the culture with fresh serum-free medium at a final concentration of 20 ng/ml and 2 ng/ml respectively, or otherwise as indicated. Cell viability was assessed by Trypan blue exclusion. At different time points, cells and conditioned media were harvested for further investigation.
# GSK3b = GSK3b (Homo sapiens, UniProt P49841); assay: Inhibitory phosphorylation of GSK3b in HKC cells (immunoblot); format: cell-based; set-up: endogenous in cells; host or cells: HKC-8
# Chain of GSK3b (P49841 whole entry): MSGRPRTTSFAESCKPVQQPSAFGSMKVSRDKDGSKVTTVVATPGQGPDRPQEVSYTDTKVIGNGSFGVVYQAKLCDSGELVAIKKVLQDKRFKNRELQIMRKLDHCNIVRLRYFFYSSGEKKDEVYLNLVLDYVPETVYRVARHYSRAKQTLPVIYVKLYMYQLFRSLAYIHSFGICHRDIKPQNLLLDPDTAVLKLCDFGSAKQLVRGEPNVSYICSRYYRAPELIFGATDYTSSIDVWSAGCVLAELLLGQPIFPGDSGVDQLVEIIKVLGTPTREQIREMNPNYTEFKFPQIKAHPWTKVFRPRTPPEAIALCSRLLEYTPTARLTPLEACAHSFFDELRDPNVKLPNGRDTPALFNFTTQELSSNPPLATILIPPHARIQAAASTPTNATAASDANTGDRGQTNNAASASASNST
# Description: as §1
# (§2) After different treatments, HKC cells were washed with PBS and lysed with RIPA buffer supplemented with protease inhibitors [1% Nonidet P-40, 0.1% SDS, 100 ug/ml phenylmethysulfonyl fluoride (PMSF), 0.5% sodium deoxycholate, ImM sodium orthovanadate, 2 ug/ml aprotin, 2 ug/ml leupeptin, 5mM EDTA in PBS]. Protein concentration was determined by using a bicinchoninic acid protein assay kit (Sigma). All samples with equal amounts of total protein (50 ug/ml) were fractionated by 7.5˜15% SDS-polyacrylamide gels under reducing condition and analyzed by western immunoblot as described previously (30). The antibodies against p-GSK3b, p-NFkB p65, p-IkBa were purchased from Cell Signaling Technology (Beverly, Mass.) and those for GSK3b, hemagglutin were from Santa Cruz Biotechnology (Santa Cruz, Calif.).
# b-catenin = b-catenin accumulation in HKC; format: cell-based, human
# NFkB target genes = assay: Real time RT-PCR of NFkB target genes in TNF-a stimulated HKC cells; format: cell-based, human; details: HKC cells, 12 h
# Description: Total RNA was extracted from approximately 1×10^6 cultured HKC cells using TRIzol solution (Invitrogen, Carlsbad, Calif.) according to the instructions specified by the manufacturer. RNA was then diluted to 3μg/μl in RNase free distilled water. The first strand cDNA was prepared using 3 μg RNA, Superscript RT reverse transcriptase (Invitrogen) and oligo (dT) primer according to the manufacture's instruction. Quantitative real time PCR was carried out on a Stratagene Mx4000® multiplex quantitative PCR system (Stratagene, La Jolla, Calif.) using primers specific for human MCP-1, RANTES, IkBa, Bcl-2 and GAPDH. All reactions were performed in triplicate with Brilliant® SYBR® Green QPCR Master Mix (Stratagene). Fluorescence values of SYBR Green I dye, representing the amount of product amplified at that point in the reaction, were recorded in real time at both the annealing step and the extension step of each cycle. The Ct value, defined as the point at which the fluorescence signal was statistically significant above background, was calculated for each amplicon in each experimental sample using Stratagene Mx4000 software. This value was then used to determine the relative amount of amplification in each sample by interpolating from the standard curve. Transcript level of each specific gene was normalized to GAPDH amplification.
# GSK3b and NFkB p65 = target: T1, GSK3b and NFkB p65 (Homo sapiens, UniProt P49841); assay: Co-immunoprecipitation of GSK3b and NFkB p65 in HKC cells; format: cell-based; details: HKC cells
# T1 construct: whole cell lysates were subjected to immunoprecipitation by anti-GSK3b or anti-p65 antibody; endogenous in cells; host or cells: HKC-8
# T1 sequence (P49841 whole entry): as above
# Description: Immunoprecipitation was carried out by using an established method as described previously. Briefly, cells were washed with ice cold PBS and then lysed with RIPA buffer. After preclearing with normal IgG, cell lysates with equal amount of total protein (0.5 mg of protein) were incubated overnight at 4° C. with 4 μg specific agarose-conjugated antibodies. The precipitated complexes were collected, washed, and separated on SDS-polyacrylamide gels and blotted with various antibodies as indicated.
# [1] = tested on: rats with unilateral urethral obstruction(UUO); assay: Rats with unilateral urethral obstruction (UUO); format: in vivo, rat; details: for renal inflammation (ED-1 macrophage infiltration): VPA 200 mg/kg/d ip, 5 days
# NFkB p65 = assay: TNF-a induced NFkB p65 phosphorylation in HKC cells (immunoblot); format: cell-based, human; details: HKC cells; for TNF-a induced p65 phosphorylation at S468: TNF-a 2 ng/ml, VPA 1 mM, 10 uM for 60 minutes
# Description: as §1, §2
# [2] = kidney homogenates, immunoblot, listed as VPA
inhibitory phosphorylation of GSK3b (S9) (GSK3b),TNF-a induced co-precipitation of phosphorylated p65 (Ser468) with GSK3b (GSK3b and NFkB p65; immunoprecipitation by anti-GSK3b),TNF-a induced GSK3b to p65 interaction (GSK3b and NFkB p65; immunoprecipitation by anti-p65),inhibitory phosphorylation of GSK3b (S9) (GSK3b; listed as Sodium valproate),SMILES,cell viability / TNF-a induced apoptosis (HKC cells),b-catenin accumulation (b-catenin),TNF-a induced mRNA expression of IkBa and Bcl-2 (NFkB target genes),TNF-a induced mRNA expression of MCP-1 and RANTES (NFkB target genes),renal inflammation (ED-1 macrophage infiltration) [1],renal inflammation (ED-1 macrophage infiltration) ([1]; listed as VPA),"renal total GSK3b expression ([1]; kidney homogenates, immunoblot)","renal inhibitory phosphorylation of GSK3b [1, 2]","renal total GSK3b expression [1, 2]","TNF-a induced p65 phosphorylation at other sites (S276, S536) (NFkB p65)",TNF-a induced p65 phosphorylation at S468 (NFkB p65),TNF-a induced p65 phosphorylation at S468 (NFkB p65; listed as VPA),inhibitory phosphorylation of GSK3b (S9) (GSK3b; listed as Valproic acid)
induced marked GSK3b phosphorylation,,,,Cn1sc(=O)n(Cc2ccccc2)c1=O [TDZD-8],Only lithium significantly reduced cell viability,induced b-catenin (b-Cat.) accumulation,,,,,,,,,,,
induced marked GSK3b phosphorylation,mimicking the action of VPA,reminiscent the effect of VPA,induced phosphorylation of GSK3b at Ser9,"CCCC(CCC)C(=O)O [valproate, Valproic acid, reference compound]",Only lithium significantly reduced cell viability,induced b-catenin (b-Cat.) accumulation,mimicked the action of HGF on the expression of these genes,mimicked the action of HGF on the expression of these genes,prevented inflammatory infiltration; also recorded: markedly ameliorates renal inflammation,diminished renal inflammation,blunted induced expression of GSK3b in the diseased kidney,much greater; also recorded: enhanced its inhibitory phosphorylation,substantially suppressed total GSK3b expression,minimally affected phosphorylation of p65 at other sites,suppresses TNF-a elicited p65 phosphorylation at S468,abrogates the TNF-a induced NFkB p65 phosphorylation at Ser468 in a dose dependent manner,induces inhibitory phosphorylation of GSK3b at S9
